Non-standard residues stand in square brackets, D forms with d. Residues, ends and D or L forms follow the SMILES beside them. No end group written: not given here. Ahx = NCCCCCC(=O)O
Legend:
[1] = Stability in 20% mouse serum (reverse-phase HPLC); type: in vitro ADME; settings: 37° C.; for remaining at 2 h: 2 h incubation, read-out: peptide still intact; for peptide degradation: after 24 hours
Procedure: FIG. 3: Evaluation of Tat-DAXXp and Pip2b-DAXXp protease ability. (A) Stability measurements of Tat-DAXXp and Pip2b-DAXXp conjugates in fetal bovine serum (FBS, BioWest) and (B) freshly prepared mouse serum (MS). Peptides were incubated with 20% serum at 37° C. for 0 h, 1 h, 2 h, 4 h, 8 h, 24 h, and 48 h, and 50 μl of the incubation mixture was precipitated in 100 μl 10% dichloroacetic acid (DCA) in H2O/CH3CN (50/50). The samples were mixed and kept at −20° C. The precipitated serum proteins were separated by centrifugation (14,000 rpm, 10 minutes) and the supernatant was analyzed by reverse-phase HPLC (measurement of the peak area in mV*sec). n≧2 for each condition.

primary cardiomyocytes = test: STS-induced DNA fragmentation (Cell Death detection ELISA PLUS) in primary cardiomyocytes; type: cell-based, mouse; settings: for reduction of DNA fragmentation: peptide given together with staurosporine, 1 μM, related to STS-treated cells (=100%), FIG. 5B
Procedure: (§1) FIG. 5: In vitro evaluation of the anti-apoptotic activity of CPPs and CPP-conjugates. Workflow and quantitation of DNA fragmentation in (A) C2C12 cells, (B) primary cardiomyocytes, (C) H9c2 cells and (D) NG108-15 cells. Data were normalized to 100% STS. Data shown are the means±SEM, with n≧5. Cells were seeded in 24-well plates and grown overnight. The next day, the cells were incubated with STS alone or with STS+1 μM peptide (in OPTI-MEM) (OPTI-MEM® is a modification of Eagle's Minimum Essential Media, buffered with HEPES and sodium bicarbonate, and supplemented with hypoxanthine, thymidine, sodium pyruvate, L-glutamine, trace elements, and growth factors) (STS concentration and incubation time for each cells are given in the figure). Thereafter, solutions were removed, replaced by complete medium and further incubated for 40 h. Following the regeneration phase, the cells were lyzed and DNA fragmentation was detected according to manufacturer's instructions (Cell Death detection ELISA^PLUS kit—Roche Diagnostics).
FIG. 6: Anti-apoptotic activity of variants of the Tat-DAXXp sequence on primary cardiomyocytes. As described in the caption of FIG. 5, the different analogues of the DAXXp sequence (see Table 2) were assessed for anti-apoptotic properties against STS (Cell Death detection ELISA^PLUS kit—Roche Diagnostics) (A-B). None of the analogues were able to protect the primary cardiomyocytes—a fact which confirms that the 16mer DAXXp has the optimal length and sequence for highest cardioprotective effect.
FIG. 7: Comparison of the murine/rat DAXXp with the human DAXXp sequence in terms of anti-apoptotic activity on C2C12 cells, primary cardiomyocytes, and H9c2. The murine DAXXp sequence conjugated to Tat (Tat-mDAXXp—SEQ ID NO: 61) which is identical to the rat DAXXp sequence (see FIG. 1B), was compared to the human construct (Tat-DAXXp) in terms of anti-apoptotic properties against STS (Cell Death detection ELISA^PLUS kit—Roche Diagnostics). The C2C12 cells and the primary cardiomyocytes used were from mice and the H9c2 cells from rat.
FIG. 9: Comparison of FADDp constructs with Tat-DAXXp in terms of anti-apoptotic activity in primary cardiomyocytes and in H9c2 cells. Quantification of DNA normalized to 100% STS. Data shown are the means±SEM, with n≧5. Cells were seeded in 24-well plates and grown overnight. The next day, the cells were incubated with STS alone or with STS+1 μM peptide (in OPTI-MEM®) (OPTI-MEM® is a modification of Eagle's Minimum Essential Media, buffered with HEPES and sodium bicarbonate, and supplemented with hypoxanthine, thymidine, sodium pyruvate, L-glutamine, trace elements, and growth factors) (STS concentration is given in the figure and incubation time is given in FIG. 5). Thereafter, solutions were removed, replaced by complete medium and further incubated for 40 hours. Following the regeneration phase, the cells were lyzed and DNA fragmentation was detected according to manufacturer's instructions (Cell Death detection ELISA^PLUS kit—Roche Diagnostics).
FIG. 10: Comparison of Tat-DAXXp and Tat-FADDp15 alone and in combination in primary cardiomyocytes (A) and in H9c2 cells (B).
(§2) Thereafter, the capacity of these peptides to inhibit apoptosis induced by staurosporine was evaluated. Apoptosis was determined using the Cell Death detection ELISA^PLUS kit (Roche) measuring the DNA fragmentation.
In most publications, anti-apoptotic peptides currently available in the art are administrated 3-4 hours prior to apoptosis induction, which is poorly relevant to a clinical application. For that reason, the protocol used in the present study included administration of the peptides together with the staurosporine. […] This was not observed with CPP alone or with the Tat-scrDAXXp or Tat-ncDAXXp negative controls. […] To better compare the results, the DNA fragmentation (described by the enrichment factor) is related to the staurosporine-treated cells (=100%).

H9c2 cells = test: STS-induced DNA fragmentation (Cell Death detection ELISA PLUS) in H9c2 cells; type: cell-based, rat; settings: rat H9c2 (model for cardiac cells); FIG. 5C
Procedure: as §1, with “Diagnostics). […]” for “Diagnostics).”
as §2
The anti-apoptotic effects of the peptides were also analyzed in murine NG118-15 (model for neuronal cells) (FIG. 5D), in murine C2C12 (model for muscle cells) (FIG. 5A) and in rat H9c2 (model for cardiac cells) (FIG. 5C). The highest reduction in DNA fragmentation were observed using Bpep-DAXXp in NG118-15 (66% reduction) using Tat-DAXXp in C2C12 (24% reduction) and Pip2b-DAXXp in H9c2 (31% reduction).

Molecule	remaining at 2 h [1]	peptide degradation [1]	reduction of DNA fragmentation (primary cardiomyocytes)	reduction in DNA fragmentation (H9c2 cells)	ability to decrease cell apoptosis / protect the cells (primary cardiomyocytes; against STS)
CC[C@H](C)[C@H](NC(=O)[C@H](Cc1c[nH]cn1)NC(=O)[C@@H](NC(=O)[C@H](CCCNC(=N)N)NC(=O)CCCCCNC(=O)[C@H](CCCNC(=N)N)NC(=O)[C@H](CCCNC(=N)N)NC(=O)CCCCCNC(=O)[C@H](CCCNC(=N)N)NC(=O)[C@H](CCCNC(=N)N)NC(=O)CCCCCNC(=O)[C@@H](N)CCCNC(=N)N)[C@@H](C)CC)C(=O)N[C@@H](CC(C)C)C(=O)N[C@@H](Cc1ccccc1)C(=O)N[C@@H](CCC(N)=O)C(=O)N[C@@H](CC(N)=O)C(=O)N[C@H](CCCNC(=N)N)C(=O)N[C@@H](CCCNC(=N)N)C(=O)N[C@@H](CCSC)C(=O)N[C@@H](CCCCN)C(=O)N[C@@H](Cc1c[nH]c2ccccc12)C(=O)N[C@@H](Cc1c[nH]cn1)C(=O)N[C@@H](CCCCN)C(=O)N[C@@H](CCCCN)C(=O)N[C@@H](CCCCN)C(=O)N[C@@H](CO)C(=O)N[C@@H](CCCNC(=N)N)C(=O)N[C@@H](CCCCN)C(=O)N[C@@H](CCC(=O)O)C(=O)N[C@@H](CCCCN)C(=O)N[C@@H](CCCCN)C(=O)N[C@@H](CCC(N)=O)C(=O)N[C@H](C(=O)NCC(=O)N[C@@H](CO)C(=O)NCC(=O)N1CCC[C@H]1C(=O)N[C@@H](CC(C)C)C(=O)NCC(N)=O)[C@@H](C)O [Pip2b-DAXXp, (RXR)3-IHILFQNrRMKWHK-KKSRKEKKQTGSGPLG-NH2] (H-R[Ahx]RR[Ahx]RR[Ahx]RIHILFQN[dR]RMKWHKKKSRKEKKQTGSGPLG-NH2; N-terminus assumed)	> 70%	all the peptide are degraded	55%	31%	–
GRKKRRQRRRPPQKKSRKEKKQTGSGPLG-NH2 [Tat-DAXXp, GRKKRRQRRRPPQ-KKSRKEKKQTGSGPLG-NH2]	> 70%	all the peptide are degraded	44%	–	–
KKSRKEKKQTGSGPLG-NH2 [DAXXp, KKSRKEKKQTGSGPLG-NH2]	–	–	–	–	capable of decreasing cell apoptosis
